Consider 13 molecules from US9067898B1, “Isothiazole derivatives as GPR120 agonists for the treatment of type II diabetes” (Janssen Pharmaceutica NV, priority 2014, dated 2015).

Usually EC50 stands for the concentration at which the effect is half-maximal.

One experiment addresses T1, Human GPR120 short form (Homo sapiens, UniProt Q5NUL3).
T1 construct: expressed in transfected cells
T1 sequence (Q5NUL3 1-361): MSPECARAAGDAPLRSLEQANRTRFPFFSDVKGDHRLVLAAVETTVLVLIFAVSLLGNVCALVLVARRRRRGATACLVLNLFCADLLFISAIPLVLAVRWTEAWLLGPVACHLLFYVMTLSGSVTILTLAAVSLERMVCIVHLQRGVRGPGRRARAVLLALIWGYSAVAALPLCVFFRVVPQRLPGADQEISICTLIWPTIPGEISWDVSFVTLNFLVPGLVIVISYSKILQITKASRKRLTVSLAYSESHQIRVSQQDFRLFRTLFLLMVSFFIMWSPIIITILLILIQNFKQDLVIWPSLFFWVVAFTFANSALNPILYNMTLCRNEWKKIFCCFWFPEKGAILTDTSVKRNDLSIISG
Description: Human GPR120 calcium flux assay (FLIPR), Procedure Calcium A. Format: cell-based. Particulars: HEK-293 cells expressing human GPR120 short form, 2500 cells/well; read-out: GPR120 Ca2+ Assay A EC50. An outline of the steps: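 HEK293 cells stably expressing the short isoform (NM_001195755.1), 2500/well, starved 1 h, then loaded with Fluo-4 NW plus probenecid (30 min 37 °C, 15 min RT). Compound solutions 0.012–100 μM, 0.2% DMSO final; FLIPR read 300 s after addition. EC50 from Fmax−Fmin fitted to variable-slope sigmoid (Hill <2).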
Background: Calcium flux is commonly read through the fluorescence of an indicator in the cells.

For experiment [1], the target named is T2, short form of the GPR120 receptor (GPR120S) (Homo sapiens, UniProt Q5NUL3).
T2 construct: host or cells: PathHunter CHO-K1 GPR120S β-Arrestin Cell Line
Description: Human GPR120 DiscoveRx PathHunter Beta-Arrestin assay, Procedure β-arrestin B. It is filed as cell-based. Particulars: PathHunter CHO-K1 GPR120S β-Arrestin cell line, 5000 cells/well, read-out: hGPR120 β-arrestin B EC50. The text has this:
The binding of an agonist (medium/long chain fatty acids or small molecule agonists) to the G-protein-coupled receptor GPR120 activates phospholipase C, leading to release of intracellular Ca^+2 through the generation of inositol 1,4,5-trisphosphate (InsP3 or IP3). GPR120 activation can also trigger intracellular signaling via recruitment of Beta-Arrestin. In the present method, agonist-induced activation of the human GPR120 receptor is monitored through the use of PathHunter CHO-K1 GPR120 Beta-Arrestin Cell Line engineered by DiscoveRx, as detailed below. The cell lines are designed to co-express both the ProLink/Enzyme Donor (PK)-tagged GPCR and the Enzyme […] (EA)-tagged Beta-Arrestin fusion proteins. Upon GPR120 receptor stimulation/activation, the EA-tagged Beta-Arrestin portion is translocated to the tagged receptor, where the two enzyme fragments are brought within close proximity. Under these conditions, these fragments can interact and form an active Beta-gal enzyme complex through Enzyme Fragment Complementation (EFC). This active Beta-gal complex can enzymatically hydrolyse the substrate to produce a detectable light signal; therefore, activation as a function of agonist concentration can be expressed as an EC50 value to determine relative compound activities. This in vitro assay therefore serves to assess compound agonist activity of the GPR120. Procedure β-Arrestin A: In Procedure β-arrestin A, the cell used were PathHunter CHO-K1 GPR120 β-Arrestin Cell Line, expressing the long form of human GPR120 (Genbank accession number NM 181745), with 3000 cells per well. Procedure β-Arrestin B: In Procedure 3-arrestin B the cells used were PathHunter CHO-K1 GPR120S β-Arrestin Cell Line, expressing the short form of the GPR120 receptor (Accession #NM_181745), with 5000 cells/well. Assay Procedure:
The selected CHO-K1 GPR120 β-Arrestin cells were cultured in Ham's F12 media supplemented with 10% fetal bovine serum (FBS), 1% Glutamine, lx p/s, 800 μg/mL G418 and 300 μg/mL Hygromycin B (for selection). Cell stocks were maintained and grown in a sub-confluent state using standard cell culture procedures. The day before the experiment, the cells were harvested with non-enzymatic cell dissociation buffer and re-suspended in complete growth media at the desired concentration. A Corning 384-plate was then seeded with the proper number of cells in a volume of 25 μL, per well. The seeded plates were incubated overnight at 37° C.
On the day of the experiment, the Assay Buffer containing (a) HBSS with Ca^++ and Mg^++, (b) 20 mM HEPES, and (c) 0.1% BSA stabilizer (pH 7.4) was prepared. The growth medium was gently removed from the cell plates and 20 μL of Assay Buffer added to each well. The plate was then incubated at 37° C. for 60 min. Test compounds were serially diluted in Assay Buffer to desired concentrations (more particularly to one or more of the following μM concentrations: 25, 12.5, 6.25, 3.125, 1.5625, 0.78125, 0.390625, 0.1953125, 0.09765625, 0.048828125, 0.024414063, 0.012207031). Five μL of compound dilution was then added to each well and the plate incubated at 37° C. for 90 min. The detection reagents were prepared according to the manufacture's instruction. Twelve μL of the detection reagents were added to each well and the plate incubated at room temperature for 60 min.
The plates were read on an EnVision instrument, using Protocol name: Luminescence, Plate type: 384 Costar, Measurement height: 3 mm, Measurement time: 1 s, Aperture: 384 Plate aperture. The % activity relative to the positive control was calculated using the following equation:
The % Activity values were plotted versus the concentration of test compound and fitted to a sigmoidal dose-response curve with a Hill slope=1 (fixed value) using nonlinear regression with GraphPad Prism 5.0 to calculate the EC50 values. […]

T2 sequence (P32121 whole entry partner, one chain of several): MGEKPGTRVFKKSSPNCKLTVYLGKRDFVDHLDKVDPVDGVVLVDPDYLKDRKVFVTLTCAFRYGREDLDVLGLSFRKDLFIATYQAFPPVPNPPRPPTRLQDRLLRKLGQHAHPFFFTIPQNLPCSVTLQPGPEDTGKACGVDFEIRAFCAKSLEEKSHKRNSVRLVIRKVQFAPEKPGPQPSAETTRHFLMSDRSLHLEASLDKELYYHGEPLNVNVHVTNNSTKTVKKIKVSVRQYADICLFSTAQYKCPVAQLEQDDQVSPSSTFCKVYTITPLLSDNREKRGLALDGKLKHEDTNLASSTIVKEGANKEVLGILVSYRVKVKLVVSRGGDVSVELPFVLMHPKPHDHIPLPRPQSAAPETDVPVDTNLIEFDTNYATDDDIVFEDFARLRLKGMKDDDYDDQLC

As for `Cc1c(CCC(=O)O)ccc(OCc2c(C3CCC(F)(F)C3)nsc2C(F)(F)F)c1C` (centres unmarked) [Cpd 199, 3-(4-[[3-(3,3-difluorocyclopentyl)-5-(trifluoromethyl)-1,2-thiazol-4-yl]methoxy]-2,3-dimethylphenyl)propanoic acid], the EC50 stood at 423 nM at Human GPR120 short form and 622 nM in experiment [1].
For `Cc1ccccc1-c1snc(C(F)(F)F)c1COc1ccc(CCC(=O)O)c(C(F)(F)F)c1` [Cpd 203, 3-(4-[[5-(2-methylphenyl)-3-(trifluoromethyl)-1,2-thiazol-4-yl]methoxy]-2-(trifluoromethyl)phenyl) propanoic acid], the EC50 on Human GPR120 short form amounted to 478 nM; in experiment [1] it was 1480 nM.
In the same order, the values of `O=C(O)C1CC1c1ccc(OCc2c(-c3ccc(Cl)cc3)nsc2C(F)(F)F)cc1` (centres unmarked) [Cpd 205, 2-(4-((3-(4-chlorophenyl)-5-(trifluoromethyl)isothiazol-4-yl)methoxy)phenyl)cyclopropanecarboxylic acid] are 530 nM and 741 nM.
As for `O=C(O)CCc1ccc(OCc2c(C(F)(F)F)nsc2-c2ccc(Cl)cc2)cc1Cl` [Cpd 208, 3-(2-chloro-4-[[5-(4-chlorophenyl)-3-(trifluoromethyl)-1,2-thiazol-4-yl]methoxy]phenyl)propanoic acid], the EC50 on Human GPR120 short form came out at 578 nM; in experiment [1], 554 nM.
Consider `Cc1cc(CCC(=O)O)c(C(F)(F)F)cc1OCc1c(Cl)nsc1-c1ccccc1C` [Cpd 210, 3-(4-((3-chloro-5-(o-tolyl)isothiazol-4-yl)methoxy)-5-methyl-2-(trifluoromethyl)phenyl)propanoic acid], for which the results for the EC50 (on Human GPR120 short form; in experiment [1]) were 580 nM and 1050 nM, respectively.
On to `CCc1ccc(-c2nsc(C(F)(F)F)c2COc2c(F)cc(CC(C)C(=O)O)cc2F)cc1F` (centres unmarked) [Cpd 212, 3-(4-((3-(4-ethyl-3-fluorophenyl)-5-(trifluoromethyl)isothiazol-4-yl)methoxy)-3,5-difluorophenyl)-2-methylpropanoic acid], for which the EC50 at Human GPR120 short form amounted to 600 nM; in experiment [1] it was 74 nM.
On to `CCc1cc(CCC(=O)O)c(C(F)(F)F)cc1OCc1c(Cl)nsc1-c1ccccc1C` [Cpd 215, 3-(4-((3-chloro-5-(o-tolyl)isothiazol-4-yl)methoxy)-5-ethyl-2-(trifluoromethyl)phenyl)propanoic acid], for which the EC50 at Human GPR120 short form came out at 648 nM; in experiment [1], 2140 nM.
For `Cc1ccc(-c2snc(C(F)(F)F)c2COc2ccc(CCC(=O)O)c(C(F)(F)F)c2)c(F)c1` [Cpd 221, 3-(4-[[5-(2-fluoro-4-methylphenyl)-3-(trifluoromethyl)-1,2-thiazol-4-yl]methoxy]-2-(trifluoromethyl)phenyl)propanoic acid] the same measures were 756 nM and 731 nM.
As for `COc1cc(OCc2c(Cl)nsc2-c2ccccc2C)ccc1CCC(=O)O` [Cpd 222, 3-(4-((3-chloro-5-(o-tolyl)isothiazol-4-yl)methoxy)-2-methoxyphenyl)propanoic acid], the figures for the EC50 (at Human GPR120 short form; in experiment [1]) were 757 nM and 1950 nM, respectively.
Turning to `Cc1c(CCC(=O)O)ccc(OCc2c(-c3ccc(C(F)(F)F)cc3)nsc2C(F)(F)F)c1C` [Cpd 224, 3-(2,3-dimethyl-4-[[5-(trifluoromethyl)-3-[4-(trifluoromethyl)phenyl]-1,2-thiazol-4-yl]methoxy]phenyl)propanoic acid], the EC50 on Human GPR120 short form is 831 nM; in experiment [1], 229 nM.
Turning to `CCc1ccc(-c2nsc(C(F)(F)F)c2COc2ccc(CCC(=O)O)c(C)c2C)c(F)c1` [Cpd 225, 3-(4-((3-(4-ethyl-2-fluorophenyl)-5-(trifluoromethyl)isothiazol-4-yl)methoxy)-2,3-dimethylphenyl)propanoic acid], the EC50 on Human GPR120 short form is 840 nM; in experiment [1], 227 nM.
In the case of `CCc1cc(OCc2c(Cl)nsc2-c2ccccc2C)ccc1CCC(=O)O` [Cpd 227, 3-(4-[[3-chloro-5-(2-methylphenyl)-1,2-thiazol-4-yl]methoxy]-2-ethylphenyl)propanoic acid], the EC50 on Human GPR120 short form came out at 867 nM; in experiment [1] it was 3780 nM.
As to `COc1cc(F)c(-c2nsc(C(F)(F)F)c2COc2ccc(CCC(=O)O)c(C)c2C)c(F)c1` [Cpd 229, 3-(4-[[3-(2,6-difluoro-4-methoxyphenyl)-5-(trifluoromethyl)-1,2-thiazol-4-yl]methoxy]-2,3-dimethylphenyl)propanoic acid], the EC50 on Human GPR120 short form was 936 nM; in experiment [1], 1810 nM.
